Source: PubChem BioAssay AID2060620 (Molecular Pharmacology Branch, DTP, NCI, 2025)
Several values for one entry are separate records, joined by “and”; a condition that tells them apart may be missing. Equal values may be shown once.

Test system: 328373-195-R-J1-PDC complex spheroids, viability % test/control
Test: Anticancer human tumor 328373-195-R-J1-PDC patient-derived head and neck squamous carcinoma cell line growth inhibition [CLK]
Settings: for viability, T/C: stronger effect = lower value
Method in brief: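 Multi-cell-type spheroids combined patient-derived tumor cells with HUVEC endothelial cells and human mesenchymal stem cells. Paired agents were dosed in half-log steps down from about clinical Cmax, or from 10 microM where Cmax was unknown.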

[1] = curve of first compound, second compound 0.0316 µM
[2] = curve of first compound, second compound 0.1 µM
[3] = curve of first compound, second compound 0.316 µM
[4] = curve of first compound, second compound 1 µM
[5] = curve of first compound, second compound 3.16 µM
[6] = curve of first compound, second compound 10 µM
[7] = second compound 0.0316 µM, first compound 0.0316 µM
[8] = second compound 0.0316 µM, first compound 0.1 µM
[9] = second compound 0.0316 µM, first compound 0.316 µM
[10] = second compound 0.0316 µM, first compound 1 µM
[11] = second compound 0.0316 µM, first compound 3.16 µM
[12] = second compound 0.0316 µM, first compound 10 µM
[13] = second compound 0.1 µM, first compound 0.0316 µM
[14] = second compound 0.1 µM, first compound 0.1 µM
[15] = second compound 0.1 µM, first compound 0.316 µM
[16] = second compound 0.1 µM, first compound 1 µM
[17] = second compound 0.1 µM, first compound 3.16 µM
[18] = second compound 0.1 µM, first compound 10 µM
[19] = second compound 0.316 µM, first compound 0.0316 µM
[20] = second compound 0.316 µM, first compound 0.1 µM
[21] = second compound 0.316 µM, first compound 0.316 µM
[22] = second compound 0.316 µM, first compound 1 µM
[23] = second compound 0.316 µM, first compound 3.16 µM
[24] = second compound 0.316 µM, first compound 10 µM
[25] = second compound 1 µM, first compound 0.0316 µM
[26] = second compound 1 µM, first compound 0.1 µM
[27] = second compound 1 µM, first compound 0.316 µM
[28] = second compound 1 µM, first compound 1 µM
[29] = second compound 1 µM, first compound 3.16 µM
[30] = second compound 1 µM, first compound 10 µM
[31] = second compound 3.16 µM, first compound 0.0316 µM
[32] = second compound 3.16 µM, first compound 0.1 µM
[33] = second compound 3.16 µM, first compound 0.316 µM
[34] = second compound 3.16 µM, first compound 1 µM
[35] = second compound 3.16 µM, first compound 3.16 µM
[36] = second compound 3.16 µM, first compound 10 µM
[37] = second compound 10 µM, first compound 0.0316 µM
[38] = second compound 10 µM, first compound 0.1 µM
[39] = second compound 10 µM, first compound 0.316 µM
[40] = second compound 10 µM, first compound 1 µM
[41] = second compound 10 µM, first compound 3.16 µM
[42] = second compound 10 µM, first compound 10 µM
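Note: spheroids exposed to the agents for 7 days.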

## CC1(C)CCC(CN2CCN(c3ccc(C(=O)NS(=O)(=O)c4ccc(NCC5CCOCC5)c([N+](=O)[O-])c4)c(Oc4cnc5[nH]ccc5c4)c3)CC2)=C(c2ccc(Cl)cc2)C1 + CN1CCN(c2cc(C(=O)Nc3cc4cc(-c5cnn(C)c5)ccc4cn3)ccn2)CC1
[1]
  IC50: 6500 nM
[2]
  IC50: > 10000 nM
[3]
  IC50: < 31.6 nM
[4]
  IC50: < 31.6 nM
[5]
  IC50: < 31.6 nM
[6]
  IC50: < 31.6 nM
[7]
  viability, T/C: 98.7%
[8]
  viability, T/C: 99.3%
[9]
  viability, T/C: 93.3%
[10]
  viability, T/C: 91.4%
[11]
  viability, T/C: 83.8%
[12]
  viability, T/C: 30.1%
[13]
  viability, T/C: 88.8%
[14]
  viability, T/C: 83.2%
[15]
  viability, T/C: 86.4%
[16]
  viability, T/C: 81.8%
[17]
  viability, T/C: 78.2%
[18]
  viability, T/C: 51.5%
[19]
  viability, T/C: 28%
[20]
  viability, T/C: 34.3%
[21]
  viability, T/C: 33.9%
[22]
  viability, T/C: 31.2%
[23]
  viability, T/C: 33%
[24]
  viability, T/C: 40.4%
[25]
  viability, T/C: 0.22%
[26]
  viability, T/C: 0.22%
[27]
  viability, T/C: 0.21%
[28]
  viability, T/C: 0.14%
[29]
  viability, T/C: 2.75%
[30]
  viability, T/C: 3.03%
[31]
  viability, T/C: 0.09%
[32]
  viability, T/C: 0.14%
[33]
  viability, T/C: 1.25%
[34]
  viability, T/C: 0.12%
[35]
  viability, T/C: 0.11%
[36]
  viability, T/C: 0.15%
[37]
  viability, T/C: 0.11%
[38]
  viability, T/C: 1.97%
[39]
  viability, T/C: 3.19%
[40]
  viability, T/C: 0.16%
[41]
  viability, T/C: 1.92%
[42]
  viability, T/C: 2.43%

## CC(CO)NC(=O)c1cc(-c2ccc(Cl)cc2)nn(-c2cnn(C)c2)c1=O (stereo not given) + CNC(=O)c1ccc(Nc2nc(OC3CCCC3)c3c(-c4ccc5nc(C)oc5c4)c[nH]c3n2)c(OC)c1
[1]
  IC50: > 10000 nM
[2]
  IC50: < 31.6 nM
[3]
  IC50: < 31.6 nM
[4]
  IC50: < 31.6 nM
[5]
  IC50: < 31.6 nM
[6]
  IC50: < 31.6 nM
[7]
  viability, T/C: 76.2%
[8]
  viability, T/C: 80.8%
[9]
  viability, T/C: 73%
[10]
  viability, T/C: 90.8%
[11]
  viability, T/C: 73.6%
[12]
  viability, T/C: 62.9%
[13]
  viability, T/C: 16.1%
[14]
  viability, T/C: 12.2%
[15]
  viability, T/C: 11.9%
[16]
  viability, T/C: 14.1%
[17]
  viability, T/C: 16.1%
[18]
  viability, T/C: 12.8%
[19]
  viability, T/C: 10.9%
[20]
  viability, T/C: 10.5%
[21]
  viability, T/C: 11.2%
[22]
  viability, T/C: 11.8%
[23]
  viability, T/C: 11.4%
[24]
  viability, T/C: 12%
[25]
  viability, T/C: 8.66%
[26]
  viability, T/C: 9.73%
[27]
  viability, T/C: 9.96%
[28]
  viability, T/C: 10.2%
[29]
  viability, T/C: 9.14%
[30]
  viability, T/C: 8.61%
[31]
  viability, T/C: 13.6%
[32]
  viability, T/C: 10.9%
[33]
  viability, T/C: 8.97%
[34]
  viability, T/C: 10.1%
[35]
  viability, T/C: 12.7%
[36]
  viability, T/C: 10.7%
[37]
  viability, T/C: 12.9%
[38]
  viability, T/C: 9.53%
[39]
  viability, T/C: 11.4%
[40]
  viability, T/C: 12.1%
[41]
  viability, T/C: 13.2%
[42]
  viability, T/C: 11.7%

## Nc1ccccc1NC(=O)c1ccc(CNC(=O)OCc2cccnc2)cc1 + CNC(=O)c1ccc(Nc2nc(OC3CCCC3)c3c(-c4ccc5nc(C)oc5c4)c[nH]c3n2)c(OC)c1
[1]
  IC50: 55 nM
[2]
  IC50: < 31.6 nM
[3]
  IC50: < 31.6 nM
[4]
  IC50: < 31.6 nM
[5]
  IC50: < 31.6 nM
[6]
  IC50: < 31.6 nM
[7]
  viability, T/C: 54.2%
[8]
  viability, T/C: 46.5%
[9]
  viability, T/C: 35.2%
[10]
  viability, T/C: 23.1%
[11]
  viability, T/C: 19.5%
[12]
  viability, T/C: 4.85%
[13]
  viability, T/C: 12.5%
[14]
  viability, T/C: 11.8%
[15]
  viability, T/C: 10.5%
[16]
  viability, T/C: 12.9%
[17]
  viability, T/C: 13.8%
[18]
  viability, T/C: 4.28%
[19]
  viability, T/C: 9.94%
[20]
  viability, T/C: 9.86%
[21]
  viability, T/C: 8.75%
[22]
  viability, T/C: 9.9%
[23]
  viability, T/C: 15.7%
[24]
  viability, T/C: 4.12%
[25]
  viability, T/C: 9.33%
[26]
  viability, T/C: 7.31%
[27]
  viability, T/C: 9.56%
[28]
  viability, T/C: 11.4%
[29]
  viability, T/C: 14.1%
[30]
  viability, T/C: 3.25%
[31]
  viability, T/C: 9.23%
[32]
  viability, T/C: 8.04%
[33]
  viability, T/C: 10.8%
[34]
  viability, T/C: 10.7%
[35]
  viability, T/C: 15.6%
[36]
  viability, T/C: 3.34%
[37]
  viability, T/C: 12.2%
[38]
  viability, T/C: 9.96%
[39]
  viability, T/C: 10.2%
[40]
  viability, T/C: 12.4%
[41]
  viability, T/C: 15.5%
[42]
  viability, T/C: 3.38%

## Nc1ccccc1NC(=O)c1ccc(CNC(=O)OCc2cccnc2)cc1 + CN1CCN(c2cc(C(=O)Nc3cc4cc(-c5cnn(C)c5)ccc4cn3)ccn2)CC1
[1]
  IC50: 706 nM
[2]
  IC50: 641 nM
[3]
  IC50: < 31.6 nM
[4]
  IC50: < 31.6 nM
[5]
  IC50: < 31.6 nM
[6]
  IC50: < 31.6 nM
[7]
  viability, T/C: 90.1%
[8]
  viability, T/C: 79.9%
[9]
  viability, T/C: 63.5%
[10]
  viability, T/C: 38.3%
[11]
  viability, T/C: 34.1%
[12]
  viability, T/C: 11.1%
[13]
  viability, T/C: 74.5%
[14]
  viability, T/C: 80%
[15]
  viability, T/C: 55.4%
[16]
  viability, T/C: 40.8%
[17]
  viability, T/C: 30%
[18]
  viability, T/C: 7.09%
[19]
  viability, T/C: 26.5%
[20]
  viability, T/C: 32.9%
[21]
  viability, T/C: 22.5%
[22]
  viability, T/C: 16.6%
[23]
  viability, T/C: 8.58%
[24]
  viability, T/C: 1.38%
[25]
  viability, T/C: 0.23%
[26]
  viability, T/C: 1.09%
[27]
  viability, T/C: 0.16%
[28]
  viability, T/C: 0.08%
[29]
  viability, T/C: 1.1%
[30]
  viability, T/C: 2.52%
[31]
  viability, T/C: 0.07%
[32]
  viability, T/C: 0.75%
[33]
  viability, T/C: 1.64%
[34]
  viability, T/C: 0.06%
[35]
  viability, T/C: 0.07%
[36]
  viability, T/C: 0.09%
[37]
  viability, T/C: 0.04%
[38]
  viability, T/C: 1.05%
[39]
  viability, T/C: 0.15%
[40]
  viability, T/C: 0.1%
[41]
  viability, T/C: 2.24%
[42]
  viability, T/C: 0.16%

## Nc1ccccc1NC(=O)c1ccc(CNC(=O)OCc2cccnc2)cc1
Compound 0.0316 µM
  viability, T/C: 87.1% and 84.6%
Compound 0.1 µM
  viability, T/C: 71.8% and 68.4%
Compound 0.316 µM
  viability, T/C: 54.6% and 49.4%
Compound 1 µM
  viability, T/C: 38.6% and 28.9%
Compound 3.16 µM
  viability, T/C: 31.2% and 21.1%
Compound 10 µM
  viability, T/C: 7.32% and 4.87%
Curve of compound
  IC50: 515 nM and 299 nM
